In ChEMBL document CHEMBL3272354, “Antifilarial agents. 1,2-Cyclobutanediamines as analogues of diethylcarbamazine. Status of structure-activity relationships among diethylcarbamazine analogues” (1977):

Assays:
Format in all cases: functional
Litomosoides carinii [1] = assay: Antifilarial activity against Litomosoides carinii infected in gerbil assessed as microfilaria count at 25, 50, 100 and 200 mg/kg administered on days 0, 1, 2 and 3 respectively measured on day 14 relative to control
Litomosoides carinii [2] = assay: Antifilarial activity against Litomosoides carinii infected in gerbil assessed as microfilaria count at 25, 50, 100 and 200 mg/kg administered on days 0, 1, 2 and 3 respectively measured on day 9 relative to control
Litomosoides carinii [3] = assay: Antifilarial activity against Litomosoides carinii infected in gerbil assessed as microfilaria count at 25, 50, 100 and 200 mg/kg administered on days 0, 1, 2 and 3 respectively measured on day 3 relative to control
Litomosoides carinii [4] = assay: Antifilarial activity against Litomosoides carinii infected in gerbil assessed as microfilaria count at 25, 50, 100 and 200 mg/kg administered on days 0, 1, 2 and 3 respectively measured on day 1 relative to control
Litomosoides carinii [5] = assay: Antifilarial activity against Litomosoides carinii infected in gerbil assessed as microfilaria count at 25, 50, 100 and 200 mg/kg administered on days 0, 1, 2 and 3 respectively measured on day 7 relative to control
Litomosoides carinii [6] = assay: In vivo antifilarial activity against Litomosoides carinii
Litomosoides carinii [7] = assay: Antifilarial activity against Litomosoides carinii infected in gerbil assessed as microfilaria count at 25, 50, 100 and 200 mg/kg administered on days 0, 1, 2 and 3 respectively measured on day 10 relative to control
Litomosoides carinii [8] = assay: Antifilarial activity against Litomosoides carinii infected in cotton rat assessed as reduction of microfilaria relative to control; design: scale not given: the % may be the effect or the level left
Litomosoides carinii [9] = assay: Antifilarial activity against Litomosoides carinii infected in gerbil assessed as microfilaria count at 25, 50, 100 and 200 mg/kg administered on days 0, 1, 2 and 3 respectively measured on day 11 relative to control
Litomosoides carinii [10] = assay: Antifilarial activity against Litomosoides carinii infected in natal multimammate rat assessed as reduction of microfilaria relative to control; design: scale not given: the % may be the effect or the level left

Structure (SMILES)	Activity (Litomosoides carinii [1]) [%]	Activity (Litomosoides carinii [2]) [%]	Activity (Litomosoides carinii [3]) [%]	Activity (Litomosoides carinii [4]) [%]	Activity (Litomosoides carinii [5]) [%]	Activity (Litomosoides carinii [6]) [%]	Activity (Litomosoides carinii [7]) [%]	Activity (Litomosoides carinii [8]) [%]	Activity (Litomosoides carinii [9]) [%]	Activity (Litomosoides carinii [10]) [%]
CCOC(=O)N[C@H]1CC[C@@H]1NC.Cl	151	99	113	101	122	–	–	–	–	–
CCN(CC)C(=O)N1CCCN(C)CC1	–	–	–	–	–	1	–	–	–	–
CCOC(=O)N[C@H]1CC[C@H]1N(C)C.O=C(O)/C=C\C(=O)O (relative stereo)	199	154	59	127	169	–	–	–	–	–
CCOC(=O)N[C@H]1CC[C@@H]1N.Cl (relative stereo)	153	–	163	107	148	–	182	–	–	–
CCOC(=O)N[C@H]1CC[C@@H]1NC(=O)OCC (relative stereo)	208	240	236	189	201	–	–	–	–	–
CCOC(=O)N(C)[C@H]1CC[C@@H]1NC.O=C(O)/C=C\C(=O)O (relative stereo)	165	95	160	150	150	–	–	–	–	–
CCOC(=O)N[C@H]1CC[C@@H]1N(C)C.O=C(O)/C=C\C(=O)O (relative stereo)	213	133	190	96	158	–	–	–	–	–
CCN(CC)C(=O)N[C@H]1CC[C@@H]1N(C)C.O=C(O)CC(O)(CC(=O)O)C(=O)O (relative stereo)	161	137	113	106	111	–	–	–	–	–
CCN(CC)C(=O)N(C)[C@H]1CC[C@@H]1N(C)C.O=C(O)/C=C\C(=O)O (relative stereo)	100	159	99	185	174	–	–	–	–	–
CCN(CC)C(=O)N1CCN(C)CC1 [DIETHYLCARBAMAZINE]	–	29	0.1	6	–	–	–	1	43	–
CN1CCN(C(=O)C2CCCCC2)CC1 [PEXANTEL]	–	–	–	–	–	–	–	–	–	1
